Patent US20070213686A1, “System and method for prevention of radiocontrast induced nephropathy” (priority 2003, published 2007)
Counter-ions that a name gives are not always drawn.

Tests used:
[1] = Intra-renal delivery of fenoldopam, renal artery blood flow; type: in vivo, human; conditions: intra-renal delivery at about 0.1 and about 0.2 mcg/kg/min
Experimental: At the time of the procedure, a switch to local delivery can easily be made with the previously described bifurcated catheter. […] Therefore another titration (in this situation most frequently migrating upward) is performed according to further embodiments, starting at the systemic dose, and moving towards a tolerated local dose, for the duration of the intended catheterization. Post-procedure, if the specialized bifurcated catheter is preferably to be removed, then the administration could be returned to a systemic dose, with or without additional hydration concurrently.

[2] = cited from earlier work
[3] = test system: hypovolemic dogs receiving contrast; conditions: cited from earlier work
contrast nephropathy = conditions: cited from earlier work
[4] = systemic regimens; nausea and vomiting, flushing, hypotension, tachycardia, hypokalemia, ST/T-wave changes, dizziness, dyspnea; cited from earlier work
[5] = Local renal papaverine, renal blood flow in human subjects; type: in vivo; conditions: local renal doses of about 2 mg/min and about 3 mg/min

Compound	renal artery blood flow [1]	increase in renal blood flow from baseline ([2]; normal volunteers, 0.1 mcg/kg/min)	increment in renal blood flow ([2]; patients with a mean serum creatinine of 2.6 mg/dL, 0.1 mcg/kg/min) [%]	renal vasodilation ([2]; systemic doses as low as approximately 0.01 through approximately 0.5 mcg/kg/min IV)	renal blood flow and renal function (glomerular filtration rate) [3]	efficacy in preventing contrast nephropathy, 0.2 vs 0.1 mcg/kg/min (contrast nephropathy; 0.2 mcg/kg/min compared with 0.1 mcg/kg/min)	benefit over saline (CONTRAST trial) (contrast nephropathy; 300 patients, 0.05-0.1 mcg/kg/min systemic IV over 12 hours)	renal function in high-risk patients undergoing contrast procedures (contrast nephropathy; small studies incl. randomized, double blind, placebo-controlled trial, 0.05-0.5 mcg/kg/min for 4-6 hours, started prior to contrast)	frequency of common side effects other than headache [4] [%]	renal blood flow rates [5]
Oc1ccc(C2CNCCc3c2cc(O)c(O)c3Cl)cc1 (stereo not shown) [fenoldopam, fenoldopam mesylate]	significant and immediate increases in renal artery blood flow	approximately 40%	16	dose-dependent renal vasodilation	prevented reduction in both renal blood flow and renal function	greater efficacy	no benefit	attenuated worsening of renal function	≤ 5	–
COc1ccc(Cc2nccc3cc(OC)c(OC)cc23)cc1OC [papaverine]	–	–	–	–	–	–	–	–	–	increase renal blood flow rates
